These results are taken from BindingDB's records for doi:10.3109/14756366.2012.753591 (Gyeongsang National University, 2014).

Assay [1] deals with Replicase polyprotein 1a (Severe acute respiratory syndrome coronavirus, UniProt P0C6U8). As to the kind of experiment: SARS-CoV PLpro Inhibition Assay. The conditions noted are these: pH 8. How it is done: (§1) Reactions were performed in a total volume of […], which contained thefollowing components: 20mM Tris-buffer, pH 8.0, 10mM DTT, […], 2% DMSO and varying concentrations of inhibitor ([…]). Assays were initiated with the addition of PLpro to produce a final enzyme concentration of 60 nM.

The target in assay [2] is Replicase polyprotein 1a/Z-RLRGG-AMC (Severe acute respiratory syndrome coronavirus, UniProt P0C6U8). As to the kind of experiment: SARS-CoV PLpro Inhibition Assay. Conditions: pH 8. As for the experimental part:
as §1

Broadly, the IC50 is the point on the concentration scale where inhibition reaches its midpoint. Read a high IC50 as lower potency. Broadly, the Ki is a dissociation constant, usually derived from enzyme kinetics or from competition with a known ligand. A low value points to a stronger hold on the target.

For the compound `O=c1ccc2ccc3occc3c2o1` [2H-furo[2,3-h]chromen-2-one], the IC50 in assay [1] is greater than 150 µM.
The same measure, in the same setting: in the case of `O=c1ccc2cc3ccoc3cc2o1` [7H-furo[3,2-g]chromen-7-one] it was greater than 150 µM.
With `COc1cc2c(cc1CC=C(C)C)C(=O)CC(c1ccc(O)cc1)O2` (stereo unspecified) [Bavachinin (1)], in assay [1], it took 38.4 µM to reach half-maximal inhibition (IC50) and affinity was put at a Ki of 18.4 µM.
Regarding `CC(C)=CCc1cc(-c2coc3cc(O)ccc3c2=O)ccc1O` [Neobavaisoflavone (2)], in assay [1], the IC50 is 18.3 µM and the inhibitory constant (Ki) amounted to 9.4 µM.
The like results for `COc1cc(O)c(C(=O)/C=C/c2ccc(O)cc2)cc1CC=C(C)C` [4'-O-methylbavachalcone (4)] were, in that order, 10.1 µM and 4.6 µM.
Consider `CC(C)=CCc1cc2c(cc1O)oc(=O)c1c3ccc(O)cc3oc21` [Psoralidin (5)], for which, in assay [1], the concentration for half-maximal inhibition (IC50) worked out at 4.2 µM and the inhibition constant Ki amounted to 1.7 µM. In assay [2], this compound returned a Ki of 4.2 µM.
In the case of `CC(C)=CCC/C(C)=C\Cc1cc(-c2coc3cc(O)ccc3c2=O)ccc1O` [Corylifol A (6)], in assay [1], the IC50 was 32.3 µM and the Ki was determined as 11.4 µM.
As to `CC(C)=CCc1c(O)ccc(C(=O)/C=C/c2ccc(O)cc2)c1O` [Isobacachalcone], the midpoint of inhibition in assay [1], the IC50, lay at 7.3 µM. Moreover, the Ki came to 4.9 µM in assay [1] and 9.1 µM in assay [2].
